Values of other authors, collected in patent US20150045288A1, “COMPOSITION” (priority 2012, published 2015).
Read-outs that look alike come from different tables or passages of the source.

Conditions: 50% ethanol solution

For difficidin, which “t90 (time at which 90% of the inhibitory substance remains as tested by HPLC)” value (pH 3.5, room temperature) is on record?
Its value is 2 h.

What about the “t90 (time at which 90% of the inhibitory substance remains as tested by HPLC)” value (pH 11, room temperature) of the same substance?
Its value is 17 h.
